From patent US20240025887A1, “THIENYL AND CYCLOALKYL AMINOPYRIMIDINE COMPOUNDS AS INHIBITORS OF NUAK KINASES, COMPOSITIONS AND USES THEREOF” (Ontario Institute for Cancer Research (OICR), priority 2021, published 2024) come the findings set out here.

One may read the IC50 as the concentration that inhibits the measured activity by half.

What all share (assay type): biochemical
In one assay the target is T1, Aurora A (Homo sapiens, UniProt O14965).
T1 sequence (O14965 1-403): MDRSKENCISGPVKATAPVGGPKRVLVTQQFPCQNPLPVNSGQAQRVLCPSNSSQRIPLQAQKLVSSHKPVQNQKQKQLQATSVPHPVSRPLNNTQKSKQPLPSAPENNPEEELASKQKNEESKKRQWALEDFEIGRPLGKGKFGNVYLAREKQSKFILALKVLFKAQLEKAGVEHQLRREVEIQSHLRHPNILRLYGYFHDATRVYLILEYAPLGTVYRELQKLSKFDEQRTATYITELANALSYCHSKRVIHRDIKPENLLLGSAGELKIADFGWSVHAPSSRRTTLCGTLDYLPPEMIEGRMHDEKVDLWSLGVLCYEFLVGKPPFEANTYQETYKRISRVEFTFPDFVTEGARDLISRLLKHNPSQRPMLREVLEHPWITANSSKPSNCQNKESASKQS
The experiment in a line: Aurora A counter screen. The settings on record: read-out: AUR-A (IC50). The essentials:
(§1)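 Radiometric assay with full-length recombinant NUAK2 in 8 mM MOPS pH 7.0, 0.2 mM EDTA, 10 mM magnesium acetate, 300 μM peptide substrate and [33P]-ATP, 40 min at room temperature. Phosphoric acid stop, filter capture, scintillation counting. Aurora A and NUAK1 used as counter screens.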

The target of a further assay is T2, NUAK2 (h) (Homo sapiens, UniProt Q9H093).
T2 construct: This assay was done radiometrically using full-length, recombinant enzyme; purchased Eurofins
T2 sequence (Q9H093 1-628): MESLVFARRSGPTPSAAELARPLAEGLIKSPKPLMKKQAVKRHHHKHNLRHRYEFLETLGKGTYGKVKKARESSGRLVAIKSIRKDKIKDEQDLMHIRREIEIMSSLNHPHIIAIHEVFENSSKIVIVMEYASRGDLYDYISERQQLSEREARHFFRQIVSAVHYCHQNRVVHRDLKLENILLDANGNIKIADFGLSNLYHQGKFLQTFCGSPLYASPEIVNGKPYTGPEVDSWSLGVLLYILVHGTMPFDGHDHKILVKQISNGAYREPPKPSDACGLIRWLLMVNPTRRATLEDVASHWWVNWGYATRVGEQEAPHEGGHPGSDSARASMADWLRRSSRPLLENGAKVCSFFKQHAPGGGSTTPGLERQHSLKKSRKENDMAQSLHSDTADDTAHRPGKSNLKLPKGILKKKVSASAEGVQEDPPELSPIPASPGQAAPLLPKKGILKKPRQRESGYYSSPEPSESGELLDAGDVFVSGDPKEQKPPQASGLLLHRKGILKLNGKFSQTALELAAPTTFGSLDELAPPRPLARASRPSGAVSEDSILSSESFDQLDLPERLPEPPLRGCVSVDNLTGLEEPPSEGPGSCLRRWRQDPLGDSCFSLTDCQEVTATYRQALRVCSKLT
The experiment in a line: NUAK2 enzymatic assay (radiometric, Eurofins). Conditions: radiometric, full-length recombinant enzyme. A digest of the protocol: as §1

The target in another assay is T3, NUAK1 (Homo sapiens, UniProt O60285).
T3 sequence (O60285 1-661): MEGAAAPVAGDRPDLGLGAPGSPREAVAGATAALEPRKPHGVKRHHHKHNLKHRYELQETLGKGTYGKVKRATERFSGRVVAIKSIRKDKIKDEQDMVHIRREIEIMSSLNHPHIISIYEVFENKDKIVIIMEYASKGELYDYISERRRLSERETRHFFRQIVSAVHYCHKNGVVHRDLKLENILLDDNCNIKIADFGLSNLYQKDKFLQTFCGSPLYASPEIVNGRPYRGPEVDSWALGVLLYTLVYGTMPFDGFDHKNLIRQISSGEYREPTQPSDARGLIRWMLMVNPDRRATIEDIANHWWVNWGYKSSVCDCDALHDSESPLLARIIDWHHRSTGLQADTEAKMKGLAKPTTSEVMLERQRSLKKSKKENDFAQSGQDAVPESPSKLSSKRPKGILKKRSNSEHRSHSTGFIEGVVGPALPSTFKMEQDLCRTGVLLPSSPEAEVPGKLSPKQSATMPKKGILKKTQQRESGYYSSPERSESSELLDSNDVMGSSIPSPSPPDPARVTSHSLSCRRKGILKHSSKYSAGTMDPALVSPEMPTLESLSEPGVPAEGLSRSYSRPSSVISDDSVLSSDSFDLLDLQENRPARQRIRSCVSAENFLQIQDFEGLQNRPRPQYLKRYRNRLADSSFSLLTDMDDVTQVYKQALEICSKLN
Put plainly: NUAK1 counter screen. A digest of the protocol: as §1
A general note: The purpose of a counterscreen is to sort out artefacts and off-target activity.

In the case of `C[C@H]1CN(C2CCN(c3ccc(Nc4ncc(C(F)(F)F)c(Nc5ccsc5C(N)=O)n4)c(OC(F)F)c3)CC2)CCN1C` [Compound I-68, (S)-3-((2-((2-(difluoromethoxy)-4-(4-(3,4-dimethylpiperazin-1-yl)piperidin-1-yl)phenyl)amino)-5-(trifluoromethyl)pyrimidin-4-yl)amino)thiophene-2-carboxamide], the IC50 at Aurora A is 101 to 1000 nM; at NUAK2 (h) it was 11 to 100 nM; on NUAK1, 11 to 100 nM.

Take `C[C@@H]1CN(C2CCN(c3ccc(Nc4ncc(Cl)c(Nc5ccsc5C(N)=O)n4)c(OC(F)F)c3)CC2)C[C@@H](C)N1C` [Compound I-69, 3-((5-chloro-2-((2-(difluoromethoxy)-4-(4-((3R,5R)-3,4,5-trimethylpiperazin-1-yl)piperidin-1-yl)phenyl)amino)pyrimidin-4-yl)amino)thiophene-2-carboxamide]: the values for the IC50 on Aurora A, at NUAK2 (h) and on NUAK1 were 11 to 100 nM, 0.1 to 10 nM and 11 to 100 nM, respectively.

For `C[C@H]1CN(C)CCN1C1CCN(c2ccc(Nc3ncc(Cl)c(Nc4ccsc4C(N)=O)n3)c(OC(F)F)c2)CC1` [Compound I-70, (S)-3-((5-chloro-2-((2-(difluoromethoxy)-4-(4-(2,4-dimethylpiperazin-1-yl)piperidin-1-yl)phenyl)amino)pyrimidin-4-yl)amino)thiophene-2-carboxamide], the half-inhibitory concentration (IC50) at Aurora A, at NUAK2 (h) and at NUAK1 was 11 to 100 nM in each case.

Turning to `NC(=O)c1sccc1Nc1nc(Nc2ccc(N3CCC(N4CCN5CCC[C@@H]5C4)CC3)cc2OC(F)F)ncc1Cl` [Compound I-71, (R)-3-((5-chloro-2-((2-(difluoromethoxy)-4-(4-(hexahydropyrrolo[1,2-a]pyrazin-2(1H)-yl)piperidin-1-yl)phenyl)amino)pyrimidin-4-yl)amino)thiophene-2-carboxamide], the IC50 at Aurora A, at NUAK2 (h) and on NUAK1 was 11 to 100 nM in each case.

`CN1CCCN(C2CCN(c3ccc(Nc4ncc(Cl)c(Nc5ccsc5C(N)=O)n4)c(OC(F)F)c3)CC2)CC1` [Compound I-72, 3-((5-chloro-2-((2-(difluoromethoxy)-4-(4-(4-methyl-1,4-diazepan-1-yl)piperidin-1-yl)phenyl)amino)pyrimidin-4-yl)amino)thiophene-2-carboxamide]: the IC50 on Aurora A was 101 to 1000 nM; at NUAK2 (h), 11 to 100 nM; on NUAK1, 11 to 100 nM.

For the compound `CN(C1CCCCC1)C1CCN(c2ccc(Nc3ncc(Cl)c(Nc4ccsc4C(N)=O)n3)c(OC(F)F)c2)CC1` [Compound I-73, 3-((5-chloro-2-((4-(4-(cyclohexyl(methyl)amino)piperidin-1-yl)-2-(difluoromethoxy)phenyl)amino)pyrimidin-4-yl)amino)thiophene-2-carboxamide], the IC50 fell in the range of 101 to 1000 nM on Aurora A, 11 to 100 nM on NUAK2 (h) and 11 to 100 nM on NUAK1.

For `NC(=O)c1sccc1Nc1nc(Nc2ccc(N3CCC(N4CCCCC4)CC3)cc2OC(F)F)ncc1C(F)(F)F` [Compound I-76], the IC50 fell in the range of 101 to 1000 nM on Aurora A, 0.1 to 10 nM at NUAK2 (h) and 11 to 100 nM against NUAK1.

Take `CCN1CCN(C2CCN(c3ccc(Nc4ncc(C(F)(F)F)c(Nc5ccsc5C(N)=O)n4)c(OC(F)F)c3)CC2)CC1` [Compound I-77, 3-((2-((2-(difluoromethoxy)-4-(4-(4-ethylpiperazin-1-yl)piperidin-1-yl)phenyl)amino)-5-(trifluoromethyl)pyrimidin-4-yl)amino)thiophene-2-carboxamide]: the figures for the IC50 at Aurora A, at NUAK2 (h) and at NUAK1 were 101 to 1000 nM, 0.1 to 10 nM and 0.1 to 10 nM, respectively.

Take `CC(C)(C)N1CCN(C2CCN(c3ccc(Nc4ncc(C(F)(F)F)c(Nc5ccsc5C(N)=O)n4)c(OC(F)F)c3)CC2)CC1` [Compound I-79, 3-((2-((4-(4-(4-(tert-butyl)piperazin-1-yl)piperidin-1-yl)-2-(difluoromethoxy)phenyl)amino)-5-(trifluoromethyl)pyrimidin-4-yl)amino)thiophene-2-carboxamide]: the IC50 at Aurora A was 101 to 1000 nM; on NUAK2 (h) it was 11 to 100 nM; on NUAK1 it was 11 to 100 nM.

With `CN1CCN(C2CCN(c3ccc(Nc4ncc(C#N)c(Nc5ccsc5C(N)=O)n4)c(OC(F)F)c3)CC2)CC1` [Compound I-80, 3-((5-cyano-2-((2-(difluoromethoxy)-4-(4-(4-methylpiperazin-1-yl)piperidin-1-yl)phenyl)amino)pyrimidin-4-yl)amino)thiophene-2-carboxamide], the IC50 lay in the range of 101 to 1000 nM on Aurora A, 11 to 100 nM at NUAK2 (h) and 11 to 100 nM on NUAK1.

As to `CN1CCN(C2CCN(c3ccc(Nc4ncc(Cl)c(N[C@@H]5CCC[C@@H]5C(N)=O)n4)c(OC(F)F)c3)CC2)CC1` [Compound I-83, (1S,2R)-2-((5-chloro-2-((2-(difluoromethoxy)-4-(4-(4-methylpiperazin-1-yl)piperidin-1-yl)phenyl)amino)pyrimidin-4-yl)amino)cyclopentane-1-carboxamide], the IC50 was 101 to 1000 nM at Aurora A, 11 to 100 nM on NUAK2 (h) and 11 to 100 nM at NUAK1.

As to `CN1CCN(c2ccc(Nc3ncc(Cl)c(N[C@@H]4CCC[C@@H]4C(N)=O)n3)c(C(F)(F)F)c2)CC1` [Compound I-84, (1S,2R)-2-((5-chloro-2-((4-(4-methylpiperazin-1-yl)-2-(trifluoromethyl)phenyl)amino)pyrimidin-4-yl)amino)cyclopentane-1-carboxamide], the IC50 at Aurora A was above 1000 nM; at NUAK2 (h) it was 11 to 100 nM; against NUAK1, 101 to 1000 nM.

Consider `CN1CCN(c2ccc(Nc3ncc(Cl)c(N[C@@H]4CCCC[C@@H]4C(N)=O)n3)c(C(F)(F)F)c2)CC1` [Compound I-85, (1S,2R)-2-((5-chloro-2-((4-(4-methylpiperazin-1-yl)-2-(trifluoromethyl)phenyl)amino)pyrimidin-4-yl)amino)cyclohexane-1-carboxamide], for which the IC50 on Aurora A was above 1000 nM; on NUAK2 (h), 11 to 100 nM; on NUAK1 it was 101 to 1000 nM.

Consider `CN1CCN(c2ccc(Nc3ncc(Cl)c(N[C@@H]4CCC[C@@H]4C(N)=O)n3)c(OC(F)F)c2)CC1` [Compound I-86, (1S,2R)-2-((5-chloro-2-((2-(difluoromethoxy)-4-(4-methylpiperazin-1-yl)phenyl)amino)pyrimidin-4-yl)amino)cyclopentane-1-carboxamide], for which the IC50 on Aurora A is above 1000 nM; on NUAK2 (h), 11 to 100 nM; at NUAK1 it was 11 to 100 nM.
